Measured values reported in US10882856B2 (BeiGene, Ltd., priority 2017, dated 2021).
Read-outs that look alike come from different tables or passages of the source.

Assays:
[1] = target: T1, IDO1 (Homo sapiens, UniProt P14902); assay: IDO1 enzymatic assay; assay type: biochemical; parameters: His tag (N); made in house; host or cells: E. coli; details: read-out: Enzyme IC50 IDO1
Method in brief: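 Recombinant IDO1 carrying an N-terminal His tag and purified from E. coli was used at 50 nM with test compound, 1.3 mM D-tryptophan, 5 mM L-ascorbic acid, methylene blue and 0.4 mg/mL catalase in 50 mM potassium phosphate pH 7.5 containing 0.1% BSA. This mixture was incubated at 24 °C for 1.5 hours, after which N'-formylkynurenine formation was followed continuously at 321 nm for 1 hour and activity was taken as the slope. IC50 was derived from the enzyme activity remaining as compound concentration increased.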

[2] = target: T2, cellular IDO1 in HeLa cells (Homo sapiens, UniProt P14902); assay: HeLa cell-based IDO1 Kyn (kynurenine) production assay; details: IDO1 induced by IFN-γ, 48 hours, read-out: cell-based EC50 value (IDO1 expressed Hela cells)
T2 construct: endogenous in cells; host or cells: HeLa (ATCC), induced with human recombinant IFN-γ
Description: HeLa Cell-Based IDO1 Kyn (Kynurenine) Production Assay:
The inhibitory activity of IDO1 inhibitors is determined by using a colorimetric reaction to measure Kyn generated from L-Trp (L-Tryptophon) oxidation by cellular IDO1 in HeLa cells after induction of IDO1 expression by IFN-γ.
Hela cells were obtained from the American Type Culture Collection and recovered in 10% FBS-containing phenol red-free DMEM medium. Cells were plated onto a 96-well plate (100 μl/well) at 8000 cells per well and kept at 37° C. in a humidified incubator supplied with 5% CO2 4 hours later, Human recombinant IFN-γ (8901SC, CST) was added to cells (final concentration 100 ng/mL) to stimulate endogenous IDO11. Compounds at different concentrations diluted in dimethylsulfoxide (DMSO) were added simultaneously with IFN-γ and 0.4 mM L-Trp. Cells were kept at 37° C. in a humidified incubator supplied with 5% CO2. After 48 hours of incubation, 100 μl supernatant from each well was removed to a new plate. The protein in the medium was precipitated with the addition of 8 μl 6N trichloroacetic acid. The plate was incubated at 60° C. for 30 minutes and then centrifugation at 2500 rpm for 10 minutes to remove sediments. […] The absorbance at 480 nm wavelength derived from Kyn was measured using a PHERAstar FS plate reader (BMG LABTECH). […]

[3] = target: T3, cellular TDO2 in HEK293-TDO2 cells (Homo sapiens, UniProt P48775); assay: 293-TDO2 cell-based assay (Kyn colorimetric); details: 48 hours of incubation
T3 construct: expressed in transfected cells; host or cells: HEK293 (ATCC), stably transfected
Method in brief: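 HEK293 cells stably expressing TDO2 (10000/well, phenol red-free DMEM, 10% FBS) were dosed 4 h after plating and incubated 48 h at 37° C. Supernatant Kyn was measured after TCA precipitation by 4-(dimethylamino)benzaldehyde colour at 480 nm. IC50 came from four-parameter logistic fits.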

[4] = target: T4, TDO2 in 293-TDO2 cells (Homo sapiens, UniProt P48775); assay: 293-TDO2 cell-based TDO2 Kyn (kynurenine) production assay
T4 construct: expressed in transfected cells; host or cells: HEK293 (ATCC), stably transfected
Method in brief: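 HEK293 cells stably transfected to express tryptophan 2,3-dioxygenase were seeded at 10000 per well in 96-well plates in phenol red-free DMEM with 10% FBS. After 4 hours, DMSO-diluted compound dilutions were added, and cells were kept 48 hours at 37 °C, 5% CO2. Supernatant was deproteinised with trichloroacetic acid, and kynurenine was measured at 480 nm after adding 2% 4-(dimethylamino)benzaldehyde. Potency came from four-parameter logistic fits in XLfit.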

[5] = target: T5, TDO (Homo sapiens, UniProt P48775); assay: TDO enzymatic assay; assay type: biochemical; details: read-out: Enzyme IC50 TDO
T5 construct: His tag (C); made in house; host or cells: E. coli
Method in brief: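 Recombinant C-terminally His-tagged TDO purified from E. coli (100 nM) was tested with 0.5 mM L-tryptophan (Km concentration). Otherwise the IDO1 enzymatic set-up was used: ascorbic acid, methylene blue, catalase, and potassium phosphate pH 7.5 with BSA, incubated 1.5 hours. N'-formylkynurenine absorbance was read continuously at 321 nm, and activity was taken as the slope. IC50 was calculated from remaining enzyme activity across increasing compound concentrations.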

[6] = target: T1, IDO1; assay: Hela cell-based IDO1 assay; details: Hela cells
Method in brief: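 Kynurenine was measured at 480 nm in trichloroacetic acid-deproteinised supernatant after adding 2% 4-(dimethylamino)benzaldehyde. This supernatant came from HeLa cells seeded at 8000 per well in 96-well plates in phenol red-free DMEM with 10% FBS and, from 4 hours after seeding, exposed for 48 hours at 37 °C, 5% CO2 to DMSO-diluted compound dilutions, IFN-γ (final 100 ng/mL) and 0.4 mM L-Trp. The resulting data were fitted with a four-parameter logistic model in XLfit. Potency was taken from those fits.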

[7] = target: T1, IDO1; assay: IDO1 enzymatic assay; assay type: biochemical; parameters: His tag (N); made in house; host or cells: E. coli; details: recombinant IDO1, 1.3 mM D-tryptophan
Description: Recombinant IDO1 was overexpressed and purified from E. coli cells with an N-terminal His tag. IDO1 enzymatic assay was carried out using a methodology similar to described in the literature (J. Biol. Chem. (1980), 255, 1339-1345.). The reaction mixture contains 50 nM IDO1, 1.3 mM D-tryptophan, 5 mM L-ascorbic acid, […] methylene Blue, 0.4 mg/mL catalase and compound (or DMSO) in a buffer containing 50 mM potassium phosphate pH 7.5 and 0.1% BSA. After incubation at 24′C for 1.5 hours, absorbance of the reaction mixture was continuously read at 321 nm to monitor the formation of N′-formylkynurenine by a FULOstar OMEGA plate reader (BMG LABTECH) for 1 hour. The enzymatic activity was determined by measuring the slope of the linear absorbance increase as a function of time. The IC50s are calculated based on remaining enzyme activity in the presence of increasing concentrations of compounds.

T1 sequence (P14902 whole entry): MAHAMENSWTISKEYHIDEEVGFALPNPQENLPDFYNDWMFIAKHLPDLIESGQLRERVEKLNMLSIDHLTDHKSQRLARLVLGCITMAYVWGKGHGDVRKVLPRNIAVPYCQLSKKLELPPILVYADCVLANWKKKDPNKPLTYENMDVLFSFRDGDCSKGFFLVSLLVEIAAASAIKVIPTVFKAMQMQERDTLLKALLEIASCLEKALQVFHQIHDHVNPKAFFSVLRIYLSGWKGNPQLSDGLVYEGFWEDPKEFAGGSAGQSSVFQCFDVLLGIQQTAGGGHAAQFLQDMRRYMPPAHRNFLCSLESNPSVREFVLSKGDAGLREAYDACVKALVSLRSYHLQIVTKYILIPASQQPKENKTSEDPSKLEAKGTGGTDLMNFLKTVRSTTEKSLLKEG
T2 sequence (P14902 whole entry): as above
T5 sequence (P48775 whole entry): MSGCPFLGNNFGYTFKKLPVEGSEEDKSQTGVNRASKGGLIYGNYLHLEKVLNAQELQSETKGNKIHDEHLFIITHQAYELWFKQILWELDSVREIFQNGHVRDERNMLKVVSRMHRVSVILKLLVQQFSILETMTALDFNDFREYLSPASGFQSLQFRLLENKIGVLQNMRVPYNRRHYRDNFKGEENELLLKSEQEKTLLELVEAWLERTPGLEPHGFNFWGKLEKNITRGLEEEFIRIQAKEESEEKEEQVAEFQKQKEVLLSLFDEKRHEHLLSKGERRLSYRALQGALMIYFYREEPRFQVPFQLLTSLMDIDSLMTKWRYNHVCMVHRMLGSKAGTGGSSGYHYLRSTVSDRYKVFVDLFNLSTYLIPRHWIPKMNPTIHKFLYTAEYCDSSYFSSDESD
T4 sequence (P48775 whole entry): as above
T3 sequence (P48775 whole entry): as above

| IC50 [1] [nM] | EC50 [2] [nM] | EC50 [3] [nM] | EC50 [4] [nM] | IC50 [5] [nM] | EC50 [6] [nM] | IC50 [7] [nM] | SMILES |
| --- | --- | --- | --- | --- | --- | --- | --- |
| 22 | 130 | > 10000 | > 10000 | 8100 | 131 | 22 | OC(c1c(C2CC2)ccc2cncn12)[C@H]1CC[C@H](c2ccc(Cl)cc2)CC1 (single isomer, unassigned) [Example D103c] |
| 67 | > 10000 | – | > 10000 | – | – | 67 | OC(c1c(C2CC2)ccc2cncn12)[C@H]1CC[C@@H](c2ccc(Cl)cc2)CC1 (single isomer, unassigned) [Example D103d] |
| 17 | – | > 10000 | – | 1700 | 572 | – | O[C@@H](c1c(C2CC2)ccc2cncn12)[C@H]1CC[C@@H](c2ccc(OC3CCOCC3)cc2)CC1 [Example D114a, (R)-(6-cyclopropylimidazo[1,5-a]pyridin-5-yl)((1 s,4S)-4-(4-((tetrahydro-2H-pyran-4-yl)oxy)phenyl)cyclohexyl)methanol] |
